From ChEMBL document CHEMBL1142685, “Novel anticholinesterases based on the molecular skeletons of furobenzofuran and methanobenzodioxepine” (J Med Chem, 2005)

Legend:
Acetylcholinesterase = Acetylcholinesterase (Homo sapiens, UniProt P22303)
Description: Inhibitory concentration against human erythrocyte Acetylcholinesterase

Cholinesterase = Cholinesterase (Homo sapiens, UniProt P06276)
Description: Inhibitory concentration against human plasma Butyrylcholinesterase

SK-N-SH = assay: Reduction in Amyloid-beta precursor protein levels in Human SK-N-SH cells at 10 uM; type: functional

Sequence of Acetylcholinesterase (P22303 whole entry): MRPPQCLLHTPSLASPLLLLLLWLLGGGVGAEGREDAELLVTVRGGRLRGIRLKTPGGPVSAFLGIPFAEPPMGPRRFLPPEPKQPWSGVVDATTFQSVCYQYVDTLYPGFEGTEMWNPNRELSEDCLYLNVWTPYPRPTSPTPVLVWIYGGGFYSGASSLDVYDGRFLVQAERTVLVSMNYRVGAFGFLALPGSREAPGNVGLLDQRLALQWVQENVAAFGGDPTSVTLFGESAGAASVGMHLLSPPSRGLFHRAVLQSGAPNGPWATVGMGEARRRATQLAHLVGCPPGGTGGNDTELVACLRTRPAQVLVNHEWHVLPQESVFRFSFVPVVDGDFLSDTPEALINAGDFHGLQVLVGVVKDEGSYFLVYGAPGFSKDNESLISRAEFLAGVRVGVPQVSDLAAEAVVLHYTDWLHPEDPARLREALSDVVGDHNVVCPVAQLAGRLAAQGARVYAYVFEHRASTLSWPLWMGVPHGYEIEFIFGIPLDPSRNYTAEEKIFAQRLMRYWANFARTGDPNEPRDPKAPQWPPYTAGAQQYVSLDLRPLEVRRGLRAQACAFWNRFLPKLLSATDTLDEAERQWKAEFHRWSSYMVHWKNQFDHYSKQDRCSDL
Sequence of Cholinesterase (P06276 whole entry): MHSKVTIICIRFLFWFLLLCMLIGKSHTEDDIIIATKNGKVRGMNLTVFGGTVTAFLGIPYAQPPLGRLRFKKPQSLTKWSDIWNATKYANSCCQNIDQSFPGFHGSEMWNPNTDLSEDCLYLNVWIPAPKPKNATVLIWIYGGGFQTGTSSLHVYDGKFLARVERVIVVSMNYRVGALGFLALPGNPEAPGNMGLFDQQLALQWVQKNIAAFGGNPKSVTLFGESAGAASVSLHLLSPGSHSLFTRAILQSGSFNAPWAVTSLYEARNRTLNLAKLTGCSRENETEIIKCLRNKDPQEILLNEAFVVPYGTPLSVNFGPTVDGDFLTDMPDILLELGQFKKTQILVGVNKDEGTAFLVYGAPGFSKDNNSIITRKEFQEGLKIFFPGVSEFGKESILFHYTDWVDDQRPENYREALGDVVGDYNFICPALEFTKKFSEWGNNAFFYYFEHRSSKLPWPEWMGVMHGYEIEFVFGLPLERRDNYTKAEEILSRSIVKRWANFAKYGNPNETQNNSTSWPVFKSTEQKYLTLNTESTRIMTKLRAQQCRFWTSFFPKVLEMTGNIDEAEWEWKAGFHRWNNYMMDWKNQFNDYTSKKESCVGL

SMILES	IC50 (Acetylcholinesterase)	IC50 (Cholinesterase)	Reduction (SK-N-SH)
CC(C)c1ccc(NC(=O)Oc2ccc3c(c2)[C@]2(C)CCOC2N3C)cc1 (some centres not stated)	3860 nM	17 nM	
Cc1ccccc1NC(=O)Oc1ccc2c(c1)C1(C)COC(C1)O2 (configuration not stated)	56 nM	> 30000 nM	
Cc1ccccc1NC(=O)Oc1ccc2c(c1)C1(C)CCOC1O2 (configuration not stated)		> 30000 nM	
CC(C)c1ccc(NC(=O)Oc2ccc3c(c2)C2(C)COC(C2)O3)cc1 (configuration not stated)	4300 nM	22 nM	
CC(C)c1ccc(NC(=O)Oc2ccc3c(c2)C2(C)CCOC2O3)cc1 (configuration not stated)		27 nM	
CCNC(=O)Oc1ccc2c(c1)[C@]1(C)CCN(C)C1N2C (some centres not stated)	94 nM	4 nM	
Cc1ccccc1NC(=O)Oc1ccc2c(c1)[C@]1(C)CCOC1N2C (some centres not stated)	13 nM	1560 nM	
CNC(=O)Oc1ccc2c(c1)[C@]1(C)CCOC1N2C (some centres not stated)	27 nM	4 nM	
CCNC(=O)Oc1ccc2c(c1)C1(C)COC(C1)O2 (configuration not stated)		24 nM	
CCNC(=O)Oc1ccc2c(c1)[C@]1(C)CCOC1N2C (some centres not stated)	82 nM	2 nM	
CCNC(=O)Oc1ccc2c(c1)C1(C)CCOC1O2 (configuration not stated)	360 nM	6 nM	
CCc1ccccc1NC(=O)Oc1ccc2c(c1)[C@]1(C)CC[N+](C)([O-])[C@@H]1N2C (some centres not stated)	125 nM	1700 nM	
CN1CC[C@@]2(C)c3cc(OC(=O)Nc4ccccc4)ccc3N(C)[C@@H]12 [PHENSERINE]			50%
